Experimental data reported in publication PMC8040043, “Synthesis, Inhibitory Activity, and In Silico Modeling of Selective COX-1 Inhibitors with a Quinazoline Core” (ACS Medicinal Chemistry Letters, 2021).

Assays:
[1] = molecular target: T1, Ovine COX-1 (Ovis aries, UniProt P05979); assay: COX-1 in vitro enzymatic assay (PGE2 ELISA); type: biochemical; conditions: for inhibition at 20 µM: compound at 20 μM; for inhibitory activity in COX assays (in words): less than 50% inhibition on both COX isoforms considered inactive
T1 construct: purchased Sigma-Aldrich
T1 sequence (P05979 25-600): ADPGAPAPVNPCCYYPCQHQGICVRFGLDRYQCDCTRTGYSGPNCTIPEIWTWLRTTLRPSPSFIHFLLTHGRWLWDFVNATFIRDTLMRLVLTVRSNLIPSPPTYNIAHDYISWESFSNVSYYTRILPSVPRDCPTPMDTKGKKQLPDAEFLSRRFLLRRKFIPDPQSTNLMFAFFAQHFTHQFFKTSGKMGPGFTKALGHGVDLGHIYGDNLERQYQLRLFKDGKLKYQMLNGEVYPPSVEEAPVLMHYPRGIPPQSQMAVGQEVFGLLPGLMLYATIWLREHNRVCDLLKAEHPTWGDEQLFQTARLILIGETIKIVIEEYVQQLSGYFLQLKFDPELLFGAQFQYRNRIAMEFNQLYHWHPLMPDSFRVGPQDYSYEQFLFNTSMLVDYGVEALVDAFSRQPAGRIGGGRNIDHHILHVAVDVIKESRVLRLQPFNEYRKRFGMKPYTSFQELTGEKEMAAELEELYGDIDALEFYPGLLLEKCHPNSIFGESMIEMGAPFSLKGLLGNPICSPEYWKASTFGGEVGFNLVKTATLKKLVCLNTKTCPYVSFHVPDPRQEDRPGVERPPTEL
Procedure: (§1) The inhibitory activity of compounds was tested using in vitro enzymatic assay. Ovine COX-1 (1 unit/reaction) or human recombinant COX-2 (0.5 unit/reaction; both enzymes Sigma-Aldrich, USA) was added to 180 µL of 100 mM Tris buffer (pH 8.0), containing 5 μM porcine hematin, 18 mM L-epinephrine, and 50 μM Na2EDTA. Ten µL of tested compound dissolved in DMSO or pure DMSO (as a blank) were added to the reaction.
(§2) Sigma-Aldrich, USA) was used as a reference inhibitor. After 5 min incubation at room temperature, reaction was initiated by 5 µL of arachidonic acid (10 µM) and incubated 20 min in 37°C. Then the reaction was stopped by 20 µL of formic acid (10% v/v). The concentration of prostaglandin E2 (PGE2) was measured with Prostaglandin E2 ELISA kit (Enzo Life Sciences, USA). Reaction mixture was diluted 1:15 in assay buffer (provided in the kit) and incubated according to the manufacturer instructions.
(§3) The concentration of PGE2 produced during the reaction was estimated according to absorbance […]
(§4) inhibitory activity was calculated as percentual inhibition of PGE2 production compared to blank. At first, the inhibitory activity of compounds was tested at 20 µM to see if there is any activity. IC50 […]
(§5) of COX-2. The level of percentual inhibition was chosen based on the percentual inhibition caused by […]
(§6) All the experiments were carried out in duplicates and repeated at least two times. To test whether increasing substrate concentration influences the activity of […]
(§7) reference compound. The inhibitory activity was calculated as percentual inhibition of PGE2 production compared to blank with respective concentration of AA. […]

[2] = molecular target: T2, human recombinant COX-2 (Homo sapiens, UniProt P35354); assay: COX-2 in vitro enzymatic assay (PGE2 ELISA); type: biochemical; conditions: for inhibition at 20 µM: compound at 20 μM; for inhibition of COX-2 (in words): at 50 μM
T2 construct: purchased Sigma-Aldrich
T2 sequence (P35354 18-604): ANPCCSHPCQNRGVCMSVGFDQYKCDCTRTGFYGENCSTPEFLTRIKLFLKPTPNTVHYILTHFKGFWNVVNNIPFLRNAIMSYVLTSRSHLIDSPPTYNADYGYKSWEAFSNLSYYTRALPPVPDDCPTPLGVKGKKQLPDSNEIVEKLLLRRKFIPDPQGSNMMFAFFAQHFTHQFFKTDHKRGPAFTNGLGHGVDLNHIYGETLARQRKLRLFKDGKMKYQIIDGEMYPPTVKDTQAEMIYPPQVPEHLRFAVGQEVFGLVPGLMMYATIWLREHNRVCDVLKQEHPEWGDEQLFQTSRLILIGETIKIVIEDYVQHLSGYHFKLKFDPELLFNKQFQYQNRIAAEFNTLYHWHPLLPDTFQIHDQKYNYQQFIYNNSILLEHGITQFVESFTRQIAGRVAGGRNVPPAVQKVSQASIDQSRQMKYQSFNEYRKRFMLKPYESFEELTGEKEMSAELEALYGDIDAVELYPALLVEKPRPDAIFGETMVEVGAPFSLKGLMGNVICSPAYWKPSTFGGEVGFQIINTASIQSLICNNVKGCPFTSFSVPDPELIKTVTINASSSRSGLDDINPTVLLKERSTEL
Procedure: as §1, §2, §3, §4, §5, §6, §7

SMILES	inhibition at 20 µM [1]	inhibition at 20 µM [2]	IC50 [2]	inhibition of COX-2 (in words) [2]	inhibitory activity in COX assays (in words) [1]	IC50 [1]	selectivity index (COX-2/COX-1) ([1]; ratio of IC50 COX-2 / IC50 COX-1)
Fc1ccc(CNc2nc(Cl)nc3cc(Br)ccc23)cc1F [5b]	30.4%	30.6%	–	–	–	–	–
COc1ccc(CNc2nc(Cl)nc3cc(-c4ccc(OC)cc4)ccc23)cc1 [6a]	34.1%	7.04%	–	–	–	–	–
COc1ccc(CNc2nc(Cl)nc3cc(-c4ccc(F)cc4)ccc23)cc1 [6b]	26.6%	27.6%	–	–	–	–	–
COc1ccc(CNc2nc(Cl)nc3cc(-c4cccs4)ccc23)cc1 [6c]	92.4%	32.3%	> 50 µM	did not inhibit	–	–	–
COc1ccc(-c2ccc3c(NCc4ccc(F)c(F)c4)nc(Cl)nc3c2)cc1 [6d]	31.6%	26.5%	–	–	–	–	–
Fc1ccc(CNc2nc(Cl)nc3cc(-c4cccs4)ccc23)cc1F [6e]	96.5%	39.9%	> 50 µM	did not inhibit	–	–	–
COc1ccc(CNc2nc(N3CCOCC3)nc3cc(-c4ccc(OC)cc4)ccc23)cc1 [7a]	-3.35%	0.8%	–	–	–	–	–
COc1ccc(CNc2nc(N3CCCC3)nc3cc(-c4ccc(OC)cc4)ccc23)cc1 [7b]	6.91%	19.4%	–	–	–	–	–
COc1ccc(CNc2nc(N3CCNCC3)nc3cc(-c4ccc(OC)cc4)ccc23)cc1 [7c]	-16.5%	24.2%	–	–	–	–	–
CCN(CC)c1nc(NCc2ccc(OC)cc2)c2ccc(-c3ccc(OC)cc3)cc2n1 [7d]	-10.9%	-1.39%	–	–	–	–	–
COc1ccc(CNc2nc(N3CCOCC3)nc3cc(-c4ccc(F)cc4)ccc23)cc1 [7e]	-5.92%	-7.39%	–	–	–	–	–
COc1ccc(CNc2nc(N3CCCC3)nc3cc(-c4ccc(F)cc4)ccc23)cc1 [7f]	32.1%	3.22%	–	–	–	–	–
COc1ccc(CNc2nc(N3CCNCC3)nc3cc(-c4ccc(F)cc4)ccc23)cc1 [7g]	-13.9%	-10.1%	–	–	–	–	–
CCN(CC)c1nc(NCc2ccc(OC)cc2)c2ccc(-c3ccc(F)cc3)cc2n1 [7h]	-1.12%	4.43%	–	–	–	–	–
COc1ccc(CNc2nc(N3CCOCC3)nc3cc(-c4cccs4)ccc23)cc1 [7i]	14.8%	-5.36%	–	–	inactive	–	–
COc1ccc(CNc2nc(N3CCCC3)nc3cc(-c4cccs4)ccc23)cc1 [7j]	-38.1%	-2.17%	–	–	inactive	–	–
COc1ccc(-c2ccc3c(NCc4ccc(F)c(F)c4)nc(N4CCOCC4)nc3c2)cc1 [7k]	6.66%	7.98%	–	–	–	–	–
COc1ccc(-c2ccc3c(NCc4ccc(F)c(F)c4)nc(N4CCCC4)nc3c2)cc1 [7l]	-23.6%	8.82%	–	–	–	–	–
COc1ccc(-c2ccc3c(NCc4ccc(F)c(F)c4)nc(N4CCNCC4)nc3c2)cc1 [7m]	-6.25%	11.7%	–	–	–	–	–
CCN(CC)c1nc(NCc2ccc(F)c(F)c2)c2ccc(-c3ccc(OC)cc3)cc2n1 [7n]	18%	14.6%	–	–	–	–	–
Fc1ccc(CNc2nc(N3CCOCC3)nc3cc(-c4cccs4)ccc23)cc1F [7o]	66%	-3.62%	> 50 µM	did not inhibit	–	–	–
Cc1ccc(Nc2nc(/C=C/c3ccccc3)nc3cc(Br)ccc23)cc1 [8a]	82.2%	27.5%	> 50 µM	–	–	–	–
Fc1ccc(CNc2nc(/C=C/c3ccccc3)nc3cc(Br)ccc23)cc1F [8b]	84.7%	21.5%	> 50 µM	–	–	1.58 ± 0.89 µM	COX-1-selective
